Tests used:
[1] = system: COLO699N lung cancer cell line; assay: Crystal Violet viability assay, COLO699N; assay type: cell-based, human; design: key to CVE Average: absorbance at 570 nm (crystal violet), background wavelength subtracted; conditions: for Average CVE 24 h / Average CVE 48 h / Average CVE 72 h: COLO699N Run 1; for ABSORBANCE: COLO699N, 0.1 μg/mL cisplatin
Description: (§1) Three different viability assays were chosen to complement each other and yielded results dependent on concentration and cell line: the Methyl Tetrazolium dye assay, the Sulforhodamine B fluorescent dye assay, and the Crystal Violet dye assay.
(§2) The Sulforhodamine B and Crystal Violet assays provide information about protein and were used to complement the Methyl-Tetrazolium dye assay. […] It is used for the quantification of cellular proteins of cultured cells. The assay using Crystal Violet, a dye that binds electrostatically to proteins and stains DNA, provides a reliable, simple assay for measuring viability of cells.
(§3) The Methyl Tetrazolium, Sulforhodamine B, and Crystal Violet assays were used to assess cell viabilities. The incubation times were 24 hours, 48 hours, and 72 hours. The Nerium oleander extract Anvirzel™ (a hot water extract of oleander obtained from Salud Integral, Honduras) was tested in concentrations ranging from 0.01 ng/mL to 10 ng/mL.
(§4) Cells were detached by trypsinization (Trypsin-0.25% EDTA, Invitrogen, 25200-072) during the logarithmic phase of culture growth and plated in 96-well plates (18.000 cells/well) (Corning, Costar 359) in a final volume of 200 μl of medium per well. […] The absorbance was measured after 24 hours, 48 hours, and 72 hours of incubation.
For the Crystal Violet assay, the medium was removed from the 96-well plates, the plates rinsed with PBS (Sigma, P3813) and then the cells were […] by the addition of 10% formalin (MERCK, 1.04003.2500) for 20 minutes at RT. Formalin was removed and 0.25% aqueous crystal violet (Sigma, HT901), dissolved in water, was added for 10 minutes at RT. Unbound Crystal Violet was rinsed by washing with water and finally 33% acetic acid was added to dissolve the dye.
(§5) The optical density of each plate was measured on a μQuant spectrophotometer and the data were analyzed with Gen5 software (μQuant Biomolecular Spectrophotometer MQX200 and Gen5™ Microplate Data Collection & Analysis software, BioTek® Instruments. Inc, April 2008). Absorbance was measured at 570 nm for all assays and a second wavelength was measured in order to subtract noise. For the Methyl-Tetrazolium assay this second wavelength was 630 nm and for the Sulforhodamine B and Crystal Violet assays it was 690 nm.

[2] = system: HCT-15 (colorectal cancer); assay: Sulforhodamine B viability assay, HCT-15; assay type: cell-based, human; design: key to SRB Average: absorbance (optical density) at 570 nm, second wavelength subtracted; conditions: for SRB Average 24 h / SRB Average 48 h / SRB Average 72 h: HCT-15, Run 1
Description: as §1, §2, §3, §4
For the Sulforhodamine B assay, 96-well plates were fixed by 10% trichloroacetic acid (Fluka, 91228) and were incubated at 4° C. for 1 hour. Afterwards, plates were rinsed with water and cells were stained with 0.4% Sulforhodamine B (Sigma, 341738), dissolved in 1% acetic acid (Carlo Ebra, 401422) for 15 minutes at room temperature (RT). The unbound stain was washed twice with 1% acetic acid. Finally, 10 mM Tris Buffer pH 10.5 (Sigma, T6791) was added to dissolve the dye.
as §5

## N.N.[Cl][Pt][Cl] [cisplatin]
[1]; 0.1 μg/ml CDDP
  Average CVE 24 h: 0.303
[1]; 0.1 μg/ml CDDP, 48 h
  Average CVE 48 h: 0.393
[1]; 0.1 μg/ml CDDP, 72 h
  Average CVE 72 h: 0.418
[1]; 1 μg/ml CDDP
  Average CVE 24 h: 0.222
[1]; 1 μg/ml CDDP, 48 h
  Average CVE 48 h: 0.136
[1]; 1 μg/ml CDDP, 72 h
  Average CVE 72 h: 0.313
[1]; 10 μg/ml CDDP
  Average CVE 24 h: 0.313
[1]; 10 μg/ml CDDP, 48 h
  Average CVE 48 h: 0.47
[1]; 10 μg/ml CDDP, 72 h
  Average CVE 72 h: 0.256
[1]; 100 μg/ml CDDP
  Average CVE 24 h: 0.223
[1]; 100 μg/ml CDDP, 48 h
  Average CVE 48 h: 0.189
[1]; 100 μg/ml CDDP, 72 h
  Average CVE 72 h: 0.172
[1]; 48 h
  ABSORBANCE: 0.801
[1]; 72 h
  ABSORBANCE: 1
[1]; Run 2, 24 h, 0.1 μg/ml CDDP
  CVE Average: 0.551
[1]; Run 2, 24 h, 1 μg/ml CDDP
  CVE Average: 0.232
[1]; Run 2, 24 h, 10 μg/ml CDDP
  CVE Average: 0.504
[1]; Run 2, 24 h, 100 μg/ml CDDP
  CVE Average: 0.266
[1]; Run 2, 48 h, 0.1 μg/ml CDDP
  CVE Average: 0.801
[1]; Run 2, 48 h, 1 μg/ml CDDP
  CVE Average: 0.311
[1]; Run 2, 48 h, 10 μg/ml CDDP
  CVE Average: 0.205
[1]; Run 2, 48 h, 100 μg/ml CDDP
  CVE Average: 0.287
[1]; Run 2, 72 h, 0.1 μg/ml CDDP
  CVE Average: 1
[1]; Run 2, 72 h, 1 μg/ml CDDP
  CVE Average: 0.337
[1]; Run 2, 72 h, 10 μg/ml CDDP
  CVE Average: 0.127
[1]; Run 2, 72 h, 100 μg/ml CDDP
  CVE Average: 0.268
[1]; Run 3, 24 h, 0.1 μg/ml CDDP
  CVE Average: 0.675
[1]; Run 3, 24 h, 1 μg/ml CDDP
  CVE Average: 0.194
[1]; Run 3, 24 h, 10 μg/ml CDDP
  CVE Average: 0.398
[1]; Run 3, 24 h, 100 μg/ml CDDP
  CVE Average: 0.224
[1]; Run 3, 48 h, 0.1 μg/ml CDDP
  CVE Average: 0.624
[1]; Run 3, 48 h, 1 μg/ml CDDP
  CVE Average: 0.815
[1]; Run 3, 48 h, 10 μg/ml CDDP
  CVE Average: 0.199
[1]; Run 3, 48 h, 100 μg/ml CDDP
  CVE Average: 0.185
[1]; Run 3, 72 h, 0.1 μg/ml CDDP
  CVE Average: 0.759
[1]; Run 3, 72 h, 1 μg/ml CDDP
  CVE Average: 0.295
[1]; Run 3, 72 h, 10 μg/ml CDDP
  CVE Average: 0.155
[1]; Run 3, 72 h, 100 μg/ml CDDP
  CVE Average: 0.393
[2]; 0.1 μg/ml CDDP
  SRB Average 24 h: 2.592
  SRB Average 48 h: 2.747
  SRB Average 72 h: 2.792
[2]; 1 μg/ml CDDP
  SRB Average 24 h: 1.974
  SRB Average 48 h: 2.397
  SRB Average 72 h: 1.697
[2]; 10 μg/ml CDDP
  SRB Average 24 h: 1.657
  SRB Average 48 h: 2.449
  SRB Average 72 h: 1.71
[2]; 100 μg/ml CDDP
  SRB Average 24 h: 1.854
  SRB Average 48 h: 1.937
  SRB Average 72 h: 1.634
[2]; Run 2, 24 h, 0.1 μg/ml CDDP
  SRB Average: 2.271
[2]; Run 2, 24 h, 1 μg/ml CDDP
  SRB Average: 1.762
[2]; Run 2, 24 h, 10 μg/ml CDDP
  SRB Average: 2.09
[2]; Run 2, 24 h, 100 μg/ml CDDP
  SRB Average: 1.78
[2]; Run 2, 48 h, 0.1 μg/ml CDDP
  SRB Average: 2.54
[2]; Run 2, 48 h, 1 μg/ml CDDP
  SRB Average: 2.198
[2]; Run 2, 48 h, 10 μg/ml CDDP
  SRB Average: 2.456
[2]; Run 2, 48 h, 100 μg/ml CDDP
  SRB Average: 2.169
[2]; Run 2, 72 h, 0.1 μg/ml CDDP
  SRB Average: 2.797
[2]; Run 2, 72 h, 1 μg/ml CDDP
  SRB Average: 2.068
[2]; Run 2, 72 h, 10 μg/ml CDDP
  SRB Average: 1.85
[2]; Run 2, 72 h, 100 μg/ml CDDP
  SRB Average: 1.585
[2]; Run 3, 24 h, 0.1 μg/ml CDDP
  SRB Average: 2.578
[2]; Run 3, 24 h, 1 μg/ml CDDP
  SRB Average: 1.713
[2]; Run 3, 24 h, 10 μg/ml CDDP
  SRB Average: 1.941
[2]; Run 3, 24 h, 100 μg/ml CDDP
  SRB Average: 1.254
[2]; Run 3, 48 h, 0.1 μg/ml CDDP
  SRB Average: 2.768
[2]; Run 3, 48 h, 1 μg/ml CDDP
  SRB Average: 1.845
[2]; Run 3, 48 h, 10 μg/ml CDDP
  SRB Average: 2.104
[2]; Run 3, 48 h, 100 μg/ml CDDP
  SRB Average: 1.77
[2]; Run 3, 72 h, 0.1 μg/ml CDDP
  SRB Average: 2.96
[2]; Run 3, 72 h, 1 μg/ml CDDP
  SRB Average: 1.752
[2]; Run 3, 72 h, 10 μg/ml CDDP
  SRB Average: 2.063
[2]; Run 3, 72 h, 100 μg/ml CDDP
  SRB Average: 1.935

From patent US20190343908A1, “Therapeutic Combination for the Treatment of Cancer” (Nerium Biotechnology Inc., priority 2011, published 2019)
